Source: patent US5849745A, “N-benzylpiperazine compounds” (ADIR et Compagnie, priority 1996, dated 1998)
Where a name gives a salt, the structure may show the parent alone.

Tests used:
[1] = tested on: blood/brain barrier model (monolayer of cerebral capillary endothelial cells cocultured with astrocytes); test: Ability to cross the blood/brain barrier, endothelial cell/astrocyte coculture model; format: in vitro ADME; settings: concluded from the coefficient of permeability
Protocol: (§1) In order to study the functions of cerebral capillaries "in vitro", we developed a coculture model which allows the "in vivo" situation to be recreated. The endothelial cells of capillaries and astrocytes are cultured on either side of a filter.
(§2) The endothelial cells are cultured in the upper compartment on the filter and the astrocytes in the lower compartment on the bottom of the Petri dish.
(§3) On the day of the experiment, a solution of Ringer-HEPES (150 mM NaCl; 5.2 mM KCl; 2.2 mM CaCl2; 0.2 mM MgCl2 ·6H2 O; 6 mM NaHCO3; 5 mM HEPES; 2.8 mM glucose) is placed in the lower compartment of a 6-well dish (3 ml per well). A filter of covered with a monolayer of endothelial cells is transferred into the first well of the 6-well dish. 2 ml of the Ringer-HEPES solution containing the test compound are placed in the upper compartment of the filter. […] The experiments are performed in triplicate with filters covered with a monolayer of endothelial cells from cerebral capillaries or of collagen alone as control. They are agitated at 37° C. throughout the experiment.
(§4) In the graph clearance=f(t), measurement of the slope gives the value "PSt" where PS=permeability×surface area of the monolayer (in μl/min) for the filters covered with cerebral capillary endothelial cells. "PSf" is calculated in the same way for the control filters. The permeability for the monolayer of endothelial cells alone (PSe) is given by: [formula]
(§5) The coefficient of endothelial permeability "Pe" is calculated by dividing "PSe" by the surface area of the monolayer of endothelial cells. "Pe" is expressed in "cm/min".

[2] = as above; format: in vitro ADME; settings: in vitro coculture model, 37° C.; read-out: coefficient of permeability of the blood/brain barrier (Pe) (converted)
Protocol: as §1, §2, §3, §4, §5

[3] = tested on: mitochondrial ATP synthesis (isolated rat liver mitochondria); test: Mitochondrial energy (ATP) production during experimental calcium overload (cyclosporin A), isolated rat liver mitochondria; format: biochemical; settings: 1×10^-6 M
Protocol: Briefly, the mitochondria are extracted from rat livers. Mitochondrial respiration (1.5 mg of proteins placed in a reaction chamber) is brought about by the addition of sodium succinate, which is used as substrate (at 6×10^-4 M) and oxidative phosphorylation is triggered by the addition of ADP to the survival medium up to a final concentration of 1×10^-5 M. By recording the rates of oxygen consumption (in nmol/min./mg of mitochondrial protein) it is possible to calculate the characteristic parameters of the mitochondrial energy synthesis in the form of ATP.

[4] = tested on: isolated rat heart (myocardium); test: Ischemia-reperfusion sequence on isolated rat heart (contractile function and myocytic energetic metabolic response, 31P NMR); settings: 5×10^-6 M; for intracellular pH at the end of the ischemia: control falls from pH 7.2 to pH 6.0
Protocol: Study of the compounds of the invention on the contractile function of the myocardium and on the myocytic energetic metabolic response in the course of an ischemia-reinfusion sequence (isolated rat heart).
This study was carried out by means of the use of ^31 P NMR spectroscopy, this technique allowing the monitoring, on an isolated and infused heart, of the variation in the contents of phosphorylated compounds (ATP, phosphocreatine, inorganic phosphate) and in the intracellular pH. It allows continuous investigation of a number of variables linked with the energetic state of the myocardium and allows a comparative evaluation of the antiischemic properties of several products.
The isolated rat heart is infused aortically at a constant pressure (100 cm of water) for 30 min. and is then subjected to a partial global ischemia (coronary output reduced to 1.3% of the initial output) for 24 min., and, lastly, the heart is reinfused at constant pressure for 30 min.
Throughout the experiment, NMR spectra corresponding to 3-minute-long acquisitions are recorded. After statistical exploitation, they serve to determine the intracardial concentration of ATP, of phosphocreatine (PC) and of inorganic phosphate (Pi), as well as to evaluate the intracellular pH.
This procedure is intended to assess the effect of the presence of the product before and during the ischemia. To this end, the product is administered in the infusion medium after normoxic infusion for 20 min; it remains present in the infusion solution throughout the remainder of the experiment. A concentration of 5×10^-6 M was chosen for this comparative study.
This is intended to evaluate the effects of the products on the heart function. The heart is infused under the conditions defined above, and a catheter connected to a pressure sensor is introduced into the left ventrical (via the atrium) in order to monitor the pressure changes developed by the LV. The heart rate and the heart output are also monitored.
This is carried out in a superconducting magnet of 5.9 T in order to record the ^31 P NMR spectra. This series of experiments is intended to evaluate the impact of the product on the energetic equilibrium of the myocardium both in normoxia, in ischemia and in reinfusion.

Compound | penetration into the brain (in words) [1] | Papp [2] [×10⁻⁶ cm/s] | restoration of mitochondrial ATP synthesis [3] [%] | cytoprotective effect during an ischemia-reinfusion sequence of the myocardium, compared with trimetazidine [4] | effect on the intracellular acidosis induced by the ischemia [4] | intracellular pH at the end of the ischemia [4]
CCN1CCN(Cc2ccc(OC)c(OC)c2OC(=O)[C@@H]2C[C@H]2c2ccccc2)CC1 (relative stereo) [Example 1, N-(3,4-Dimethoxy-2-E-phenylcyclopropylcarbonyloxy)benzyl-N'-ethylpiperazinedihydrochloride] | penetrate the brain very easily | > 16.7 | 100 | greatly increased | particularly pronounced | 6.5
COc1ccc(CN2CCN(Cc3ccccc3)CC2)c(OC(=O)[C@@H]2C[C@H]2c2ccccc2)c1OC (relative stereo) [Example 2, N-(3,4-Dimethoxy-2-E-phenylcyclopropylcarbonyloxy)benzyl-N'-benzylpiperazine dihydrochloride] | penetrate the brain very easily | > 16.7 |  |  |  | 
CCN1CCN(Cc2ccc(OC)c(OC)c2OC(=O)[C@@H]2C[C@H]2c2ccccc2)CC1 [Example 17, N-(3,4-Dimethoxy-2-E-(R,R)-phenylcyclopropylcarbonyloxy)benzyl-N'-ethylpiperazine dihydrochloride] | penetrate the brain very easily | > 16.7 |  |  |  | 
CCN1CCN(Cc2ccc(OC)c(OC)c2OC(=O)[C@H]2C[C@@H]2c2ccccc2)CC1 [Example 19, N-(3,4-Dimethoxy-2-E-(S,S)-phenylcyclopropylcarbonyloxy)benzyl-N'-ethylpiperazine dihydrochloride] | penetrate the brain very easily | > 16.7 |  |  |  | 
COc1ccc(CN2CCNCC2)c(OC)c1OC [trimetazidine, 2,3,4-trimethoxybenzylpiperazine, reference compound] | penetrates poorly into the brain | 7 |  |  |  | 6.35
